Our source for the EC50 values is patent US20230391760A1, “HETEROCYCLIC GLP-1 AGONISTS” (Gasherbrum Bio, Inc., priority 2020, published 2023).

SMILES strings stand for the structures.

As a reminder, the EC50 is the concentration at which the effect is half-maximal. Read a low EC50 as an effect from little substance.

The target in this assay is GLP-1 Receptor (Homo sapiens, UniProt P43220). The experiment in a line: GLP-1R agonist cAMP stimulation assay (HEK293/GLP1R/CRE-LUC cells, cAMP dynamic 2 Kit). The class given is cell-based. As to conditions: HEK293/CRE-Luc cell line stably expressing the GLP-1 Receptor, 30 min at 37° C. The procedure: Activation of GLP-1 receptor is known to stimulate cyclic AMP (cAMP) production in cells which indicates primary coupling to the Gαs subunit of the G protein heterotrimeric complex. […] To optimize functional activity directed toward Gαs coupling, a HEK293/CRE-Luc cell line developed by HDB stably expressing the GLP-1 Receptor was used. 200×concentration of compound working solutions were prepared (Agilent Technologies Bravo) with 1/2 log serial dilution in 384-well Echo LDV plate (Labcyte, Cat #LP-0200). 50 nL/well 200× concentration of compound working solutions were moved to 384-well white low volume plate (Greiner,Cat #784075) using Labcyte ECHO550. 1×10^5 cells/mL HEK293/GLP1R/CRE-LUC(HD Biosciences) cell suspensions prepared with assay buffer[DPBS containing 0.5 mM IBMX(Sigma, Cat #15879) and 0.1% BSA (GENVIEW, Cat #FA016-100 g)], 10 uL cell suspensions were added to each well of previous generated assay plate which already contains 50 nl compound at 200×concentration using ThermoFisher Multidrop Combi (1000 cells/well). Seal the plate and incubate at 37° C. with 5% CO2 for 30 min. After incubation the cAMP assay signal was generated using cAMP dynamic 2 Kit (Cisbio). 5 μL cAMP-d2 working solution was added to each well, followed with 5 μL Anti-cAMP antibody-cryptate working solution added to each well using ThermoFisher Multidrop Combi. Incubate at room temperature for 1 hour protected from light.
Chain of GLP-1 Receptor (P43220 24-463, species assumed): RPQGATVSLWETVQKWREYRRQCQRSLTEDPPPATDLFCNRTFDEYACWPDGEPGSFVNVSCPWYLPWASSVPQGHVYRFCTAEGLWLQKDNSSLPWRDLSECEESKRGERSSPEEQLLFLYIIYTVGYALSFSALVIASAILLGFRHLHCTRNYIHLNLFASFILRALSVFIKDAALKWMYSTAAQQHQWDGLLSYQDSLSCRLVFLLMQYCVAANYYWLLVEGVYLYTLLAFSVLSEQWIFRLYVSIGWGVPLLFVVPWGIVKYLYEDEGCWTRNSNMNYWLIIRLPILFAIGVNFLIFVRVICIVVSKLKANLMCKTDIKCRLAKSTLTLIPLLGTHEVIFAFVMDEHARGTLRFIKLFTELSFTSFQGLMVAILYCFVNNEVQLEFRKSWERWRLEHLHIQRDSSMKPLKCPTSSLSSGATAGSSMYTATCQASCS
`COc1ccc(C(=O)Nc2ccc3c(c2)nc(CN2CCC(c4cccc(OCc5ccc(Cl)cc5F)n4)CC2)n3C[C@@H]2CCO2)cn1` [Compound 175a, N-{2-[(4-{6-[(4-chloro-2-fluorophenyl)methoxy]pyridin-2-yl}piperidin-1-yl)methyl]-1-{[(2S)-oxetan-2-yl]methyl}-1H-1,3-benzodiazol-5-yl}-6-methoxypyridine-3-carboxamide] yielded an EC50 of 1.5 nM.

Consider `N#Cc1ccc(COc2nccc(C3CCN(Cc4nc5cc(-c6nnc(C(F)(F)F)[nH]6)ncc5n4C[C@@H]4CCO4)CC3)n2)c(F)c1` [Compound 507a, 3-fluoro-4-{[(4-{1-[(3-{[(2S)-oxetan-2-yl]methyl}-6-[5-(trifluoromethyl)-4H-1,2,4-triazol-3-yl]-3H-imidazo[4,5-c]pyridin-2-yl)methyl]piperidin-4-yl}pyrimidin-2-yl)oxy]methyl}benzonitrile], for which it took 0.068 nM to reach a half-maximal effect (EC50).

For `O=c1[nH]c(-c2ccc3c(c2)nc(CC2CC=C(c4nc(OCc5ccc(Cl)cc5F)ncc4F)CC2)n3C[C@@H]2CCO2)no1` (stereo partly drawn) [Compound 242a, 3-(2-((4-(2-((4-chloro-2-fluorobenzyl)oxy)-5-fluoropyrimidin-4-yl)cyclohex-3-en-1-yl)methyl)-1-(((S)-oxetan-2-yl)methyl)-1H-benzo[d]imidazol-5-yl)-1,2,4-oxadiazol-5(4H)-one], a half-maximal effect (EC50) was put at 0.36 nM.

The molecule `C[C@]1(c2ccc(C#N)cc2F)Oc2cccc(C3CCN(Cc4nc5cc(-c6noc(=O)[nH]6)ncc5n4C[C@@H]4CCO4)CC3)c2O1` [Compound 433a, 3-fluoro-4-[(2S)-2-methyl-4-{1-[(3-{[(2S)-oxetan-2-yl]methyl}-6-(5-oxo-4,5-dihydro-1,2,4-oxadiazol-3-yl)-3H-imidazo[4,5-c]pyridin-2-yl)methyl]piperidin-4-yl}-2H-1,3-benzodioxol-2-yl]benzonitrile] came in with an EC50 of 0.013 nM.

`O=C(Nc1ccc2c(c1)nc(CN1CCC(c3cccc(OCc4ccc(Cl)cc4F)n3)CC1)n2C[C@@H]1CCO1)C1CCOCC1` [Compound 153a, N-{2-[(4-{6-[(4-chloro-2-fluorophenyl)methoxy]pyridin-2-yl}piperidin-1-yl)methyl]-1-{[(2S)-oxetan-2-yl]methyl}-1H-1,3-benzodiazol-5-yl}oxane-4-carboxamide]: the EC50 was 0.3 nM. The value for `Fc1cc(Cl)ccc1COc1cccc(C2CCN(Cc3nc4cc(-c5nnc[nH]5)ncc4n3C[C@@H]3CCO3)CC2)n1` [Compound 436a, 2-[(4-chloro-2-fluorophenyl)methoxy]-6-{1-[(3-{[(2S)-oxetan-2-yl]methyl}-6-(4H-1,2,4-triazol-3-yl)-3H-imidazo[4,5-c]pyridin-2-yl)methyl]piperidin-4-yl}pyridine] was 0.91 nM. Take `O=C(O)c1c[nH]nc1-c1ccc2c(c1)nc(CN1CCC(c3cccc(OCc4ccc(Cl)cc4F)n3)CC1)n2C[C@@H]1CCO1` [Compound 214a, 3-{2-[(4-{6-[(4-chloro-2-fluorophenyl)methoxy]pyridin-2-yl}piperidin-1-yl)methyl]-1-{[(2S)-oxetan-2-yl]methyl}-1H-1,3-benzodiazol-5-yl}-1H-pyrazole-4-carboxylic acid]: the response was half-maximal at 4.2 nM (EC50). The value for `O=C(Nc1ccc2c(c1)nc(CN1CCC(c3cccc(OCc4ccc(Cl)cc4F)n3)CC1)n2C[C@@H]1CCO1)C(F)(F)F` [Compound 167a, N-{2-[(4-{6-[(4-chloro-2-fluorophenyl)methoxy]pyridin-2-yl}piperidin-1-yl)methyl]-1-{[(2S)-oxetan-2-yl]methyl}-1H-1,3-benzodiazol-5-yl}-2,2,2-trifluoroacetamide] was 1.1 nM. For the molecule `Fc1cc(C2CC2)ccc1COc1cccc(C2CCN(Cc3nc4cc(-c5nnc(C(F)(F)F)[nH]5)ncc4n3C[C@@H]3CCO3)CC2)n1` [Compound 498a, 2-[(4-cyclopropyl-2-fluorophenyl)methoxy]-6-{1-[(3-{[(2S)-oxetan-2-yl]methyl}-6-[5-(trifluoromethyl)-4H-1,2,4-triazol-3-yl]-3H-imidazo[4,5-c]pyridin-2-yl)methyl]piperidin-4-yl}pyridine], it took 0.099 nM to reach a half-maximal effect (EC50). To `C[C@]1(c2ccc(Cl)cc2F)Oc2cccc(C3CCN(Cc4nc5cc(-c6nnn[nH]6)ncc5n4C[C@@H]4CCO4)CC3)c2O1` [Compound 417a, 4-[(2S)-2-(4-chloro-2-fluorophenyl)-2-methyl-2H-1,3-benzodioxol-4-yl]-1-[(3-{[(2S)-oxetan-2-yl]methyl}-6-(1H-1,2,3,4-tetrazol-5-yl)-3H-imidazo[4,5-c]pyridin-2-yl)methyl]piperidine] belongs 0.0065 nM. The value for `CC1(c2ccc(Cl)nc2)Oc2cccc(C3CCN(Cc4nc5cc(-c6nnc(C(F)(F)F)[nH]6)ncc5n4C[C@@H]4CCO4)CC3)c2O1` (stereo partly drawn) [Compound 467a, 2-chloro-5-(2-methyl-4-{1-[(3-{[(2S)-oxetan-2-yl]methyl}-6-[5-(trifluoromethyl)-4H-1,2,4-triazol-3-yl]-3H-imidazo[4,5-c]pyridin-2-yl)methyl]piperidin-4-yl}-2H-1,3-benzodioxol-2-yl)pyridine] was 0.076 nM.

As for `O=C(Nc1ccc2c(c1)nc(CN1CCC(c3cccc(OCc4ccc(Cl)cc4F)n3)CC1)n2C[C@@H]1CCO1)C1CCCOC1` (stereo partly drawn) [Compound 154a, N-{2-[(4-{6-[(4-chloro-2-fluorophenyl)methoxy]pyridin-2-yl}piperidin-1-yl)methyl]-1-{[(2S)-oxetan-2-yl]methyl}-1H-1,3-benzodiazol-5-yl}oxane-3-carboxamide], the midpoint of the response, the EC50, lay at 0.13 nM. The value for `Fc1cc(Cl)ccc1COc1cc(C2=CCN(Cc3nc4cc(-c5nnc(C(F)(F)F)[nH]5)ncc4n3C[C@@H]3CCO3)CC2)ccc1F` [Compound 297a, 4-{3-[(4-chloro-2-fluorophenyl)methoxy]-4-fluorophenyl}-1-[(3-{[(2S)-oxetan-2-yl]methyl}-6-[5-(trifluoromethyl)-4H-1,2,4-triazol-3-yl]-3H-imidazo[4,5-c]pyridin-2-yl)methyl]-1,2,3,6-tetrahydropyridine] was 0.098 nM. To `CO[C@@H](C)Cn1c(CN2CCC(c3cccc4c3OC(C)(c3ccc(Cl)cn3)O4)CC2)nc2cc(-c3noc(=O)[nH]3)ncc21` (stereo partly drawn) [Compound 437a, 3-[2-({4-[2-(5-chloropyridin-2-yl)-2-methyl-2H-1,3-benzodioxol-4-yl]piperidin-1-yl}methyl)-3-[(2S)-2-methoxypropyl]-3H-imidazo[4,5-c]pyridin-6-yl]-4,5-dihydro-1,2,4-oxadiazol-5-one] belongs 2.7 nM. The value for `CC1(c2ccc(Cl)cc2F)Oc2cccc(C3CCN(Cc4nc5cc(-c6nnc(C(F)(F)F)[nH]6)cnc5n4CC4(C#N)CC4)CC3)c2O1` (centres unmarked) [Compound 254a, 1-{[2-({4-[2-(4-chloro-2-fluorophenyl)-2-methyl-2H-1,3-benzodioxol-4-yl]piperidin-1-yl}methyl)-6-[5-(trifluoromethyl)-4H-1,2,4-triazol-3-yl]-3H-imidazo[4,5-b]pyridin-3-yl]methyl}cyclopropane-1-carbonitrile] was 0.069 nM. In turn, `Cc1cnc(-c2ccc3c(c2)nc(CN2CCC(c4cccc5c4O[C@@](C)(c4ccc(Cl)cc4F)O5)CC2)n3C[C@@H]2CCO2)nc1` [Compound 236a, 2-((4-((S)-2-(4-chloro-2-fluorophenyl)-2-methylbenzo[d][1,3]dioxol-4-yl)piperidin-1-yl)methyl)-5-(5-methylpyrimidin-2-yl)-1-(((S)-oxetan-2-yl)methyl)-1H-benzo[d]imidazole] registered an EC50 of 2 nM. To `C[C@]1(c2ccc(Cl)cc2F)Oc2cccc(C3CCN(Cc4nc5cc(-c6noc(=O)[nH]6)cnc5n4C[C@@H]4CCOC4)CC3)c2O1` [Compound 398a, 3-[2-({4-[(2S)-2-(4-chloro-2-fluorophenyl)-2-methyl-2H-1,3-benzodioxol-4-yl]piperidin-1-yl}methyl)-3-{[(3S)-oxolan-3-yl]methyl}-3H-imidazo[4,5-b]pyridin-6-yl]-4,5-dihydro-1,2,4-oxadiazol-5-one] belongs 4.3 nM; to `O=C(Nc1ccc2c(c1)nc(CN1CCC(c3cccc(OCc4ccc(Cl)cc4F)n3)CC1)n2C[C@@H]1CCO1)c1cncnc1` [Compound 200a, N-{2-[(4-{6-[(4-chloro-2-fluorophenyl)methoxy]pyridin-2-yl}piperidin-1-yl)methyl]-1-{[(2S)-oxetan-2-yl]methyl}-1H-1,3-benzodiazol-5-yl}pyrimidine-5-carboxamide], 0.35 nM; to `COCCC(=O)Nc1ccc2c(c1)nc(CN1CCC(c3cccc(OCc4ccc(Cl)cc4F)n3)CC1)n2C[C@@H]1CCO1` [Compound 107a, (S)—N-(2-((4-(6-((4-chloro-2-fluorobenzyl)oxy)pyridin-2-yl)piperidin-1-yl)methyl)-1-(oxetan-2-ylmethyl)-1H-benzo[d]imidazol-5-yl)-3-methoxypropanamide], 0.337 nM. In the case of `O=C(Nc1ccc2c(c1)nc(CN1CCC(c3cccc(OCc4ccc(Cl)cc4F)n3)CC1)n2C[C@@H]1CCO1)C1CCC(F)(F)C1` (stereo partly drawn) [Compound 186a, N-{2-[(4-{6-[(4-chloro-2-fluorophenyl)methoxy]pyridin-2-yl}piperidin-1-yl)methyl]-1-{[(2S)-oxetan-2-yl]methyl}-1H-1,3-benzodiazol-5-yl}-3,3-difluorocyclopentane-1-carboxamide], the midpoint of the response, the EC50, lay at 3 nM.
